Test results reported in PubChem BioAssay (NCI).
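At the GI50, growth is halved. At the TGI there is no net growth.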

How the values were obtained:
Assay in all cases: inhibition of tumour cell growth, NCI panel, 384-well format
[1] = test system: DU-145 prostate
[2] = test system: UACC-257 melanoma
[3] = test system: SNB-19 CNS
[4] = test system: T-47D breast
[5] = test system: SN12C renal
[6] = test system: SK-MEL-28 melanoma
[7] = test system: SK-OV-3 ovarian
[8] = test system: NCI-H522 lung
[9] = test system: NCI-H23 lung
[10] = test system: HS 578T breast
[11] = test system: RXF 393 renal
[12] = test system: UACC-62 melanoma
[13] = test system: ACHN renal

Structure (SMILES): C=CC(=O)Nc1cc(C)ccc1Nc1nc(Nc2cc(OC)ncc2C)ncc1C(F)(F)F
- GI50 [1]: 865 nM
- TGI [1]: 3600 nM
- GI50 [2]: 117 nM
- TGI [2]: 390 nM
- GI50 [3]: 786 nM
- TGI [3]: 3430 nM
- GI50 [4]: 813 nM
- TGI [4]: 5380 nM
- GI50 [5]: 321 nM
- TGI [5]: 2180 nM
- GI50 [6]: 86.6 nM
- TGI [6]: 387 nM
- GI50 [7]: 621 nM
- TGI [7]: 4210 nM
- GI50 [8]: 310 nM
- TGI [8]: 1480 nM
- GI50 [9]: 192 nM
- TGI [9]: 661 nM
- GI50 [10]: 429 nM
- TGI [10]: 1850 nM
- GI50 [11]: 215 nM
- TGI [11]: 766 nM
- GI50 [12]: 59.9 nM
- TGI [12]: 381 nM
- GI50 [13]: 374 nM
- TGI [13]: 1820 nM
